Data reported in ChEMBL document CHEMBL3045788, “Effect of abamectin on root-knot nematodes and tomato yield” (Pest Manag Sci, 2012).
Calls of active or inactive are those of the source. No cut-off for these calls is given here.

Key:
Meloidogyne incognita [1] = assay: Nematicidal activity against second-stage juvenile Meloidogyne incognita (root-knot nematode) infested tomato plant under greenhouse condition assessed as plant height at 7.5 L/hectare measured after 30 days; format: functional
Meloidogyne incognita [2] = assay: Nematicidal activity against second-stage juvenile Meloidogyne incognita (root-knot nematode) assessed as mortality after 48 hr; format: functional
Meloidogyne incognita [3] = assay: Nematicidal activity against second-stage juvenile Meloidogyne incognita (root-knot nematode) infested tomato plant under greenhouse condition assessed as plant height at 10 L/hectare measured after 30 days; format: functional
Meloidogyne incognita [4] = assay: Nematicidal activity against second-stage juvenile Meloidogyne incognita (root-knot nematode) infested tomato plant under greenhouse condition assessed as reduction in root galling index at 5 L/hectare measured after 30 days; format: functional, organism-based
Meloidogyne incognita [5] = assay: Nematicidal activity against second-stage juvenile Meloidogyne incognita (root-knot nematode) infested tomato plant under greenhouse condition assessed as reduction in root galling index at 7.5 L/hectare measured after 30 days; format: functional, organism-based
Meloidogyne incognita [6] = assay: Nematicidal activity against second-stage juvenile Meloidogyne incognita (root-knot nematode) infested tomato plant under greenhouse condition assessed as reduction in root galling index at 10 L/hectare measured after 30 days; format: functional, organism-based
Meloidogyne incognita [7] = assay: Nematicidal activity against Meloidogyne incognita (root-knot nematode) assessed as per seed; format: functional, organism-based
Meloidogyne incognita [8] = assay: Nematicidal activity against second-stage juvenile Meloidogyne incognita (root-knot nematode) infested tomato plant under greenhouse condition assessed as plant vigour at 5 L/hectare measured after 30 days; format: functional
Meloidogyne incognita [9] = assay: Nematicidal activity against second-stage juvenile Meloidogyne incognita (root-knot nematode) infested tomato plant under greenhouse condition assessed as plant vigour at 7.5 L/hectare measured after 30 days; format: functional
Meloidogyne incognita [10] = assay: Nematicidal activity against second-stage juvenile Meloidogyne incognita (root-knot nematode) infested tomato plant under greenhouse condition assessed as plant vigour at 10 L/hectare measured after 30 days; format: functional
Meloidogyne incognita [11] = assay: Nematicidal activity against second-stage juvenile Meloidogyne incognita (root-knot nematode) infested tomato plant under greenhouse condition assessed as plant height at 5 L/hectare measured after 30 days; format: functional
Meloidogyne incognita [12] = assay: Nematicidal activity against second-stage juvenile Meloidogyne incognita (root-knot nematode) infested tomato field assessed as plant height at 5 L/hectare measured after 50 days; format: functional
Meloidogyne incognita [13] = assay: Nematicidal activity against second-stage juvenile Meloidogyne incognita (root-knot nematode) infested tomato field assessed as plant height at 7.5 L/hectare measured after 50 days; format: functional
Meloidogyne incognita [14] = assay: Nematicidal activity against second-stage juvenile Meloidogyne incognita (root-knot nematode) infested tomato field assessed as plant height at 10 L/hectare measured after 50 days; format: functional
Meloidogyne incognita [15] = assay: Nematicidal activity against second-stage juvenile Meloidogyne incognita (root-knot nematode) infested tomato field assessed as reduction in number of nematodes in soil at 5 L/hectare measured after 60 days; format: functional, organism-based
Meloidogyne incognita [16] = assay: Nematicidal activity against second-stage juvenile Meloidogyne incognita (root-knot nematode) infested tomato field assessed as reduction in number of nematodes in soil at 7.5 L/hectare measured after 60 days; format: functional, organism-based
Meloidogyne incognita [17] = assay: Nematicidal activity against second-stage juvenile Meloidogyne incognita (root-knot nematode) infested tomato field assessed as reduction in number of nematodes in soil at 10 L/hectare measured after 60 days; format: functional, organism-based
Meloidogyne incognita [18] = assay: Nematicidal activity against second-stage juvenile Meloidogyne incognita (root-knot nematode) infested tomato field assessed as reduction in number of nematodes in soil at 5 L/hectare measured after 40 days; format: functional, organism-based
Meloidogyne incognita [19] = assay: Nematicidal activity against second-stage juvenile Meloidogyne incognita (root-knot nematode) infested tomato field assessed as reduction in number of nematodes in soil at 7.5 L/hectare measured after 40 days; format: functional, organism-based
Meloidogyne incognita [20] = assay: Nematicidal activity against second-stage juvenile Meloidogyne incognita (root-knot nematode) infested tomato field assessed as reduction in number of nematodes in soil at 10 L/hectare measured after 40 days; format: functional, organism-based
Meloidogyne incognita [21] = assay: Nematicidal activity against second-stage juvenile Meloidogyne incognita (root-knot nematode) infested tomato field assessed as reduction in number of nematodes in soil at 5 L/hectare measured after 20 days; format: functional, organism-based
Meloidogyne incognita [22] = assay: Nematicidal activity against second-stage juvenile Meloidogyne incognita (root-knot nematode) infested tomato field assessed as reduction in number of nematodes in soil at 7.5 L/hectare measured after 20 days; format: functional, organism-based
Meloidogyne incognita [23] = assay: Nematicidal activity against second-stage juvenile Meloidogyne incognita (root-knot nematode) infested tomato field assessed as reduction in number of nematodes in soil at 10 L/hectare measured after 20 days; format: functional, organism-based
Meloidogyne incognita [24] = assay: Nematicidal activity against second-stage juvenile Meloidogyne incognita (root-knot nematode) infested tomato plant under greenhouse condition assessed as fresh root weight at 5 L/hectare measured after 30 days; format: functional
Meloidogyne incognita [25] = assay: Nematicidal activity against second-stage juvenile Meloidogyne incognita (root-knot nematode) infested tomato plant under greenhouse condition assessed as fresh root weight at 7.5 L/hectare measured after 30 days; format: functional
Meloidogyne incognita [26] = assay: Nematicidal activity against second-stage juvenile Meloidogyne incognita (root-knot nematode) infested tomato plant under greenhouse condition assessed as fresh root weight at 10 L/hectare measured after 30 days; format: functional
Meloidogyne incognita [27] = assay: Nematicidal activity against second-stage juvenile Meloidogyne incognita (root-knot nematode) infested tomato field assessed as plant vigour at 5 L/hectare measured after 30 days; format: functional
Meloidogyne incognita [28] = assay: Nematicidal activity against second-stage juvenile Meloidogyne incognita (root-knot nematode) infested tomato field assessed as plant vigour at 7.5 L/hectare measured after 30 days; format: functional
Meloidogyne incognita [29] = assay: Nematicidal activity against second-stage juvenile Meloidogyne incognita (root-knot nematode) infested tomato field assessed as plant vigour at 10 L/hectare measured after 30 days; format: functional
Meloidogyne incognita [30] = assay: Nematicidal activity against second-stage juvenile Meloidogyne incognita (root-knot nematode) infested tomato field assessed as medium fruit yield at 10 L/hectare; format: functional
Meloidogyne incognita [31] = assay: Nematicidal activity against second-stage juvenile Meloidogyne incognita (root-knot nematode) infested tomato field assessed as large fruit yield at 5 L/hectare; format: functional
Meloidogyne incognita [32] = assay: Nematicidal activity against second-stage juvenile Meloidogyne incognita (root-knot nematode) infested tomato field assessed as large fruit yield at 7.5 L/hectare; format: functional
Meloidogyne incognita [33] = assay: Nematicidal activity against second-stage juvenile Meloidogyne incognita (root-knot nematode) infested tomato field assessed as large fruit yield at 10 L/hectare; format: functional
Meloidogyne incognita [34] = assay: Nematicidal activity against second-stage juvenile Meloidogyne incognita (root-knot nematode) infested tomato field assessed as extra-large fruit yield at 5 L/hectare; format: functional
Meloidogyne incognita [35] = assay: Nematicidal activity against second-stage juvenile Meloidogyne incognita (root-knot nematode) infested tomato field assessed as extra-large fruit yield at 7.5 L/hectare; format: functional
Meloidogyne incognita [36] = assay: Nematicidal activity against second-stage juvenile Meloidogyne incognita (root-knot nematode) infested tomato field assessed as extra-large fruit yield at 10 L/hectare; format: functional
Meloidogyne incognita [37] = assay: Nematicidal activity against second-stage juvenile Meloidogyne incognita (root-knot nematode) infested tomato field assessed as plant height at 5 L/hectare measured after 30 days; format: functional
Meloidogyne incognita [38] = assay: Nematicidal activity against second-stage juvenile Meloidogyne incognita (root-knot nematode) infested tomato field assessed as plant height at 7.5 L/hectare measured after 30 days; format: functional
Meloidogyne incognita [39] = assay: Nematicidal activity against second-stage juvenile Meloidogyne incognita (root-knot nematode) infested tomato field assessed as plant height at 10 L/hectare measured after 30 days; format: functional
Meloidogyne incognita [40] = assay: Nematicidal activity against second-stage juvenile Meloidogyne incognita (root-knot nematode) infested tomato field assessed as reduction in root galling index at 5 L/hectare measured after 30 days; format: functional, organism-based
Meloidogyne incognita [41] = assay: Nematicidal activity against second-stage juvenile Meloidogyne incognita (root-knot nematode) infested tomato field assessed as reduction in root galling index at 7.5 L/hectare measured after 30 days; format: functional, organism-based
Meloidogyne incognita [42] = assay: Nematicidal activity against second-stage juvenile Meloidogyne incognita (root-knot nematode) infested tomato field assessed as reduction in root galling index at 10 L/hectare measured after 30 days; format: functional, organism-based
Meloidogyne incognita [43] = assay: Nematicidal activity against second-stage juvenile Meloidogyne incognita (root-knot nematode) infested tomato field assessed as marketable yield at 5 L/hectare; format: functional
Meloidogyne incognita [44] = assay: Nematicidal activity against second-stage juvenile Meloidogyne incognita (root-knot nematode) infested tomato field assessed as marketable yield at 7.5 L/hectare; format: functional
Meloidogyne incognita [45] = assay: Nematicidal activity against second-stage juvenile Meloidogyne incognita (root-knot nematode) infested tomato field assessed as marketable yield at 10 L/hectare; format: functional
Meloidogyne incognita [46] = assay: Nematicidal activity against second-stage juvenile Meloidogyne incognita (root-knot nematode) infested tomato field assessed as medium fruit yield at 5 L/hectare; format: functional
Meloidogyne incognita [47] = assay: Nematicidal activity against second-stage juvenile Meloidogyne incognita (root-knot nematode) infested tomato field assessed as medium fruit yield at 7.5 L/hectare; format: functional

SMILES: CC[C@H](C)[C@H]1O[C@]2(C=C[C@@H]1C)C[C@@H]1C[C@@H](C/C=C(\C)[C@@H](O[C@H]3C[C@H](OC)[C@@H](O[C@H]4C[C@H](OC)[C@@H](O)[C@H](C)O4)[C@H](C)O3)[C@@H](C)/C=C/C=C3\CO[C@@H]4[C@H](O)C(C)=C[C@@H](C(=O)O1)[C@]34O)O2.CO[C@H]1C[C@H](O[C@H]2[C@H](C)O[C@@H](O[C@@H]3/C(C)=C/C[C@@H]4C[C@@H](C[C@]5(C=C[C@H](C)[C@@H](C(C)C)O5)O4)OC(=O)[C@@H]4C=C(C)[C@@H](O)[C@H]5OC/C(=C\C=C\[C@@H]3C)[C@]54O)C[C@@H]2OC)O[C@@H](C)[C@@H]1O [ABAMECTIN]
- Activity (Meloidogyne incognita [1]): 37.5 cm
- LC50 (Meloidogyne incognita [2]): 7.06 mgAi/L
- LC90 (Meloidogyne incognita [2]): 21.81 mgAi/L
- Activity (Meloidogyne incognita [3]): 39.2 cm
- Activity (Meloidogyne incognita [4]): Active
- Activity (Meloidogyne incognita [5]): Active
- Activity (Meloidogyne incognita [6]): Active
- EC50 (Meloidogyne incognita [7]): 0.016 mgAi
- EC80 (Meloidogyne incognita [7]): 0.28 mgAi
- Activity (Meloidogyne incognita [8]): 85%
- Activity (Meloidogyne incognita [9]): 87%
- Activity (Meloidogyne incognita [10]): 92%
- Activity (Meloidogyne incognita [11]): 35.4 cm
- Activity (Meloidogyne incognita [12]): 94.3 cm
- Activity (Meloidogyne incognita [13]): 98.6 cm
- Activity (Meloidogyne incognita [14]): 102.8 cm
- Activity (Meloidogyne incognita [15]): Active
- Activity (Meloidogyne incognita [16]): Active
- Activity (Meloidogyne incognita [17]): Active
- Activity (Meloidogyne incognita [18]): Active
- Activity (Meloidogyne incognita [19]): Active
- Activity (Meloidogyne incognita [20]): Active
- Activity (Meloidogyne incognita [21]): Active
- Activity (Meloidogyne incognita [22]): Active
- Activity (Meloidogyne incognita [23]): Active
- Activity (Meloidogyne incognita [24]): 0.98 g
- Activity (Meloidogyne incognita [25]): 1.09 g
- Activity (Meloidogyne incognita [26]): 1.14 g
- Activity (Meloidogyne incognita [27]): 85%
- Activity (Meloidogyne incognita [28]): 87%
- Activity (Meloidogyne incognita [29]): 92%
- Activity (Meloidogyne incognita [30]): 41.3%
- Activity (Meloidogyne incognita [31]): 17.4%
- Activity (Meloidogyne incognita [32]): 18.1%
- Activity (Meloidogyne incognita [33]): 20.6%
- Activity (Meloidogyne incognita [34]): 5.3%
- Activity (Meloidogyne incognita [35]): 5.8%
- Activity (Meloidogyne incognita [36]): 7.3%
- Activity (Meloidogyne incognita [37]): 32.4 cm
- Activity (Meloidogyne incognita [38]): 35.9 cm
- Activity (Meloidogyne incognita [39]): 39.1 cm
- Activity (Meloidogyne incognita [40]): Active
- Activity (Meloidogyne incognita [41]): Active
- Activity (Meloidogyne incognita [42]): Active
- Activity (Meloidogyne incognita [43]): 59.4%
- Activity (Meloidogyne incognita [44]): 63.4%
- Activity (Meloidogyne incognita [45]): 69.2%
- Activity (Meloidogyne incognita [46]): 36.7%
- Activity (Meloidogyne incognita [47]): 39.5%
